Tested on: human adipocytes
Test: Lipolytic activity: glycerol released from isolated adipocytes
Assay type: cell-based
Conditions: 90 minutes at 37° C., reference value=0
Method: Method: The adipocytes were isolated from human subcutaneous tissue by the standard Rodbell method (J. of Biolog. Chem.; 1964, 239, 375-380). The extract of Examples 1 to 3 each with two extracts (batches A and B) and the comparison substances were dissolved in a Hanks reference medium with a particular salt concentration (Cell and Tissue Culture, Ed: J. Paul, Churchill and Livingstone, 1975, page 484) and then contacted with the isolated adipocytes for 90 minutes at 37° C. Two to six adipocyte preparations were investigated. The percentage increase in glycerol released was spectrophotometrically determined in the supernatant of the medium by the Carpéné method (J. de Pharmacologie; 1981; 12;219-224).

| Compound | % Increase in glycerol released (0.1 μM) | % Increase in glycerol released (1.0 mM) |
| --- | --- | --- |
| CC(C)NCC(O)c1ccc(O)c(O)c1 (centres unmarked) [Isoprenalin] | 129% | – |
| Cn1c(=O)c2[nH]cnc2n(C)c1=O [Theophylline] | – | 187% |

Reference: patent US20030165582A1, “Preparations that contain an extract of the plant pistia stratiotes” (priority 2000, published 2003)
